Assay results reported in ChEMBL document CHEMBL5329155, “Synthesis and pharmacological evaluation of 1,3-diaryl substituted pyrazole based (thio)urea derivatives as potent antimicrobial agents against multi-drug resistant Staphylococcus aureus and Mycobacterium tuberculosis” (RSC Med Chem, 2023).
Converted amounts (≈) assume the structure as drawn.

Experiments:
Type in all cases: functional
Staphylococcus aureus [1] = assay: Antibacterial activity against Staphylococcus aureus ATCC 29213 assessed as inhibition of bacterial growth measured for 18 to 24 hrs by broth dilution method; conditions: time 18-24 hrs
[2] = test system: Mycobacterium tuberculosis; assay: Antimycobacterial activity against Mycobacterium tuberculosis H37Rv ATCC 27294 assessed as inhibition of bacterial growth incubated for 18 to 24 hrs by broth dilution method
[3] = test system: Mycobacterium tuberculosis; assay: Antimycobacterial activity against ethambutol-resisitant Mycobacterium tuberculosis ATCC 35837 assessed as inhibition of bacterial growth incubated for 18 to 24 hrs by broth dilution method; conditions: time 18-24 hrs
[4] = test system: Mycobacterium tuberculosis; assay: Antimycobacterial activity against streptomycin-resisitant Mycobacterium tuberculosis ATCC 35820 assessed as inhibition of bacterial growth incubated for 18 to 24 hrs by broth dilution method; conditions: time 18-24 hrs
[5] = test system: Mycobacterium tuberculosis; assay: Antimycobacterial activity against rifampicin-resisitant Mycobacterium tuberculosis ATCC 35838 assessed as inhibition of bacterial growth incubated for 18 to 24 hrs by broth dilution method; conditions: time 18-24 hrs
[6] = test system: Mycobacterium tuberculosis; assay: Antimycobacterial activity against isoniazid-resisitant Mycobacterium tuberculosis ATCC 35822 assessed as inhibition of bacterial growth incubated for 18 to 24 hrs by broth dilution method; conditions: time 18-24 hrs
Staphylococcus aureus [7] = assay: Antibacterial activity against methicillin/ceftriaxone/meropenem/vancomycin/teicoplanin resistant Staphylococcus aureus VRS 4 assessed as reduction in bacterial growth incubated for 18 to 24 hrs by broth dilution method; conditions: time 18-24 hrs
Staphylococcus aureus [8] = assay: Antibacterial activity against methicillin/ceftriaxone/meropenem/gentamycin/vancomycin/teicoplanin resistant Staphylococcus aureus VRS 1 assessed as reduction in bacterial growth incubated for 18 to 24 hrs by broth dilution method; conditions: time 18-24 hrs
Staphylococcus aureus [9] = assay: Antibacterial activity against methicillin/ceftriaxone/meropenem/vancomycin/teicoplanin resistant Staphylococcus aureus VRS 12 assessed as reduction in bacterial growth incubated for 18 to 24 hrs by broth dilution method; conditions: time 18-24 hrs

| SMILES | MIC (Staphylococcus aureus [1]) | MIC [2] | other results |
| --- | --- | --- | --- |
| COc1ccc(-c2ccn(-c3ccc(NC(=S)Nc4cccc5ccccc45)cc3)n2)cc1OC | > 64 µg/mL | 16 µg/mL (≈ 33.3 µM) | – |
| O=C(Nc1ccc(-n2ccc(-c3cccnc3)n2)cc1)Nc1ccc(Cl)c(Cl)c1 | > 64 µg/mL | 16 µg/mL (≈ 37.7 µM) | – |
| COc1ccc(-c2ccn(-c3ccc(NC(=S)Nc4ccc(F)c(Cl)c4)cc3)n2)cc1OC | > 64 µg/mL | 16 µg/mL (≈ 33.1 µM) | – |
| COc1ccc(-c2ccn(-c3ccc(NC(=S)Nc4cc(C(F)(F)F)cc(C(F)(F)F)c4)cc3)n2)cc1OC | 1 µg/mL (≈ 1.77 µM) | 16 µg/mL (≈ 28.2 µM) | – |
| COc1ccc(NC(=S)Nc2ccc(-n3ccc(-c4ccc(OC)c(OC)c4)n3)cc2)c(OC)c1 | > 64 µg/mL | 32 µg/mL (≈ 65.2 µM) | – |
| COc1ccc(-c2ccn(-c3ccc(NC(=O)Nc4cccc(F)c4)cc3)n2)cc1OC | > 64 µg/mL | 32 µg/mL (≈ 74 µM) | – |
| COc1ccc(-c2ccn(-c3ccc(NC(=O)Nc4ccccc4)cc3)n2)cc1OC | > 64 µg/mL | 8 µg/mL (≈ 19.3 µM) | – |
| COc1ccc(-c2ccn(-c3ccc(NC(=S)Nc4ccc(C)cc4)cc3)n2)cc1OC | > 64 µg/mL | 64 µg/mL (≈ 144 µM) | – |
| COc1ccc(-c2ccn(-c3ccc(NC(=S)NCc4ccccc4)cc3)n2)cc1OC | > 64 µg/mL | 8 µg/mL (≈ 18 µM) | – |
| COc1ccc(-c2ccn(-c3ccc(NC(=O)Nc4ccc(C)c(Cl)c4)cc3)n2)cc1OC | > 64 µg/mL | 4 µg/mL (≈ 8.64 µM) | – |
| Cc1ccc(-c2ccn(-c3ccc(NC(=O)NCc4ccccc4)cc3)n2)cc1 | > 64 µg/mL | > 64 µg/mL | – |
| O=C(NCc1ccccc1)Nc1ccc(-n2ccc(-c3ccc(Cl)cc3)n2)cc1 | > 64 µg/mL | > 64 µg/mL | – |
| COc1ccc(-c2ccn(-c3ccc(NC(=S)Nc4cccc(Br)c4)cc3)n2)cc1OC | 64 µg/mL (≈ 126 µM) | 16 µg/mL (≈ 31.4 µM) | – |
| O=C(Nc1ccc(-n2ccc(-c3ccc4ccccc4c3)n2)cc1)Nc1ccc(Cl)c(Cl)c1 | > 64 µg/mL | 64 µg/mL (≈ 135 µM) | – |
| NNC(=O)c1ccncc1 [ISONIAZID] | – | 0.03 µg/mL (≈ 0.219 µM) | MIC [3]: 0.03 µg/mL (≈ 0.219 µM); MIC [4]: 0.03 µg/mL (≈ 0.219 µM); MIC [5]: 0.03 µg/mL (≈ 0.219 µM); MIC [6]: > 64 µg/mL |
| COc1ccccc1NC(=O)Nc1ccc(-n2ccc(-c3ccc(OC)c(OC)c3)n2)cc1 | > 64 µg/mL | 32 µg/mL (≈ 72 µM) | – |

| SMILES | MIC (Staphylococcus aureus [1]) | MIC [2] | other results |
| --- | --- | --- | --- |
| O=C(Nc1ccc(-n2ccc(-c3ccc(Cl)cc3)n2)cc1)Nc1ccc(F)cc1F | > 64 µg/mL | > 64 µg/mL | – |
| COc1ccc(-c2ccn(-c3ccc(NC(=O)NS(=O)(=O)c4ccccc4)cc3)n2)cc1OC | > 64 µg/mL | 16 µg/mL (≈ 33.4 µM) | – |
| COc1ccc(-c2ccn(-c3ccc(NC(=S)Nc4ccc([N+](=O)[O-])cc4)cc3)n2)cc1OC | > 64 µg/mL | 16 µg/mL (≈ 33.6 µM) | – |
| COc1ccc(-c2ccn(-c3ccc(NC(=S)Nc4cc(C)cc(C)c4)cc3)n2)cc1OC | > 64 µg/mL | 8 µg/mL (≈ 17.4 µM) | – |
| O=C(Nc1ccc(-n2ccc(-c3ccc(Cl)cc3Cl)n2)cc1)Nc1ccc(Cl)c(Cl)c1 | > 64 µg/mL | > 64 µg/mL | – |
| O=C(NCc1ccccc1)Nc1ccc(-n2ccc(-c3ccc(Cl)cc3Cl)n2)cc1 | > 64 µg/mL | 64 µg/mL (≈ 146 µM) | – |
| COc1ccc(-c2ccn(-c3ccc(NC(=O)Nc4c(C)cccc4C)cc3)n2)cc1OC | > 64 µg/mL | > 64 µg/mL | – |
| O=C(NCc1ccccc1)Nc1ccc(-n2ccc(-c3ccc4ccccc4c3)n2)cc1 | > 64 µg/mL | 64 µg/mL (≈ 153 µM) | – |
| COc1ccc(-c2ccn(-c3ccc(NC(=S)Nc4ccccc4)cc3)n2)cc1OC | > 64 µg/mL | 8 µg/mL (≈ 18.6 µM) | – |
| COc1ccc(-c2ccn(-c3ccc(NC(=O)Nc4cccc(C(F)(F)F)c4)cc3)n2)cc1OC | > 64 µg/mL | 8 µg/mL (≈ 16.6 µM) | – |
| COc1cc(-c2ccn(-c3ccc(NC(=O)Nc4ccc(F)cc4F)cc3)n2)cc(OC)c1OC | > 64 µg/mL | 8 µg/mL (≈ 16.7 µM) | – |
| COc1ccc(-c2ccn(-c3ccc(NC(=O)Nc4ccc(Cl)cc4Cl)cc3)n2)cc1OC | > 64 µg/mL | 16 µg/mL (≈ 33.1 µM) | – |
| O=C(Nc1ccc(-n2ccc(-c3ccc4ccccc4c3)n2)cc1)Nc1ccc(F)cc1F | > 64 µg/mL | > 64 µg/mL | – |
| O=C(Nc1ccc(-n2ccc(-c3cccnc3)n2)cc1)Nc1ccc(F)cc1F | > 64 µg/mL | 8 µg/mL (≈ 20.4 µM) | – |
| CN[C@H](CC(C)C)C(=O)N[C@H]1C(=O)N[C@@H](CC(N)=O)C(=O)N[C@H]2C(=O)N[C@H]3C(=O)N[C@H](C(=O)N[C@H](C(=O)O)c4cc(O)cc(O)c4-c4cc3ccc4O)[C@H](O)c3ccc(c(Cl)c3)Oc3cc2cc(c3O[C@@H]2O[C@H](CO)[C@@H](O)[C@H](O)[C@H]2O[C@H]2C[C@](C)(N)[C@H](O)[C@H](C)O2)Oc2ccc(cc2Cl)[C@H]1O [VANCOMYCIN] | – | – | MIC (Staphylococcus aureus [7]): > 64 µg/mL; MIC (Staphylococcus aureus [8]): > 64 µg/mL; MIC (Staphylococcus aureus [9]): > 64 µg/mL |
| Cc1ccc(-c2ccn(-c3ccc(NC(=O)Nc4ccc(Cl)c(Cl)c4)cc3)n2)cc1 | > 64 µg/mL | > 64 µg/mL | – |
